Results from PMC11725774 (Cancer Research Communications, 2025).
Like-named read-outs stand apart in the source and are kept apart here.

Tests used:
[1] = system: MV-4-11 cells; experiment: Growth inhibition of AML cell line; assay type: cell-based, human
Description: (§1) MV-4-11 cells expressing NRAS^G12D were prepared by transduction with a lentiviral vector encoding the NRAS^G12D mutation. Assays using a panel of parental Ba/F3 into which an additional copy of either WT or a mutant form of FLT3 was introduced were performed at Kyinno Biotechnology Co., Ltd. All cell lines were short tandem repeat authenticated at ATCC or at DSMZ when originally obtained, and no further authentication was done after receipt of the cells in the laboratory.
(§2) Assays using Ba/F3 cells expressing WT and mutant forms of FLT3 were performed by Kyinno Biotechnology. The cells were cultured in the medium recommended by the source for each cell line. Growth inhibition assays were performed using either Cell Titer 96 Aqueous One Solution Cell Proliferation assay (Promega, # G3581) or CCK8 (Dojindo, # CK-04). […] IC50 values were determined from growth inhibition curves fitted using GraphPad Prism and a nonlinear regression model with sigmoidal dose response. Unless otherwise indicated, data are presented as mean ± SEM.

[2] = system: MOLM-14 cells (parental); experiment: Growth inhibition of AML cell line; assay type: cell-based, human
Description: as §1, §2

[3] = system: TUS/R MOLM-14 cells; experiment: Growth inhibition of TUS-resistant sublines versus parental; assay type: cell-based, human
[4] = system: TUS/R line 3 (MOLM-14); experiment: Growth inhibition of TUS-resistant subline; assay type: cell-based, human; conditions: mean ± SEM (Supplementary Table 6)
[5] = system: MV-4-11 NRAS G12D Clone 1; experiment: Growth inhibition of NRAS G12D clone; assay type: cell-based, human; conditions: MV-4-11 NRAS G12D, mean ± SEM
Description: as §1, §2

[6] = system: MV-4-11 NRAS G12D Clone 15; experiment: Growth inhibition of NRAS G12D clone; assay type: cell-based, human; conditions: MV-4-11 NRAS G12D, mean ± SEM
Description: as §1, §2

[7] = system: MV-4-11 NRAS G12D Clone 4; experiment: Growth inhibition of NRAS G12D clone; assay type: cell-based, human; conditions: MV-4-11 NRAS G12D, high expression, mean ± SEM, read-out: GI50 (nM) Clone 4
Description: as §1, §2

[8] = system: TUS/R line 4 (MOLM-14); experiment: Growth inhibition of TUS-resistant subline; assay type: cell-based, human; conditions: mean ± SEM (Supplementary Table 6)
[9] = system: Ba/F3 cells FLT3 ITD; experiment: Growth inhibition of Ba/F3 cells; assay type: cell-based, murine; conditions: Mus musculus, BaF3; Ba/F3 FLT3 ITD; mean ± SD; read-out: GI50
Description: as §1, §2

[10] = system: Ba/F3 cells FLT3 ITD/D835Y; experiment: Growth inhibition of Ba/F3 cells; assay type: cell-based, murine; conditions: Mus musculus, BaF3; Ba/F3 FLT3 ITD/D835Y; mean ± SD; read-out: GI50
Description: as §1, §2

[11] = system: Ba/F3 cells FLT3 WT; experiment: Growth inhibition of Ba/F3 cells; assay type: cell-based, murine; conditions: Mus musculus, BaF3; Ba/F3 FLT3 WT; mean ± SD; read-out: GI50
Description: as §1, §2

[12] = system: Ba/F3 cells FLT3 ITD/F691L; experiment: Growth inhibition of Ba/F3 cells; assay type: cell-based, murine; conditions: Mus musculus, BaF3; Ba/F3 FLT3 ITD/F691L; mean ± SD; read-out: GI50
Description: as §1, §2

[13] = system: Ba/F3 cells FLT3 D835Y; experiment: Growth inhibition of Ba/F3 cells; assay type: cell-based, murine; conditions: Mus musculus, BaF3; Ba/F3 FLT3 D835Y; mean ± SD; read-out: GI50
Description: as §1, §2

[14] = system: MOLM-13 cells; experiment: Growth inhibition of AML cell line; assay type: cell-based; conditions: Homo sapiens, mean ± SD
Description: as §1, §2

[15] = target: FLT3 D835Y (Homo sapiens, UniProt P36888, D835Y); experiment: Biochemical enzyme activity screening assay; conditions: kinase FLT3 D835Y; mean ± SD
[16] = system: p-JAK1, p-JAK2, p-STAT3, p-STAT5 in MOLM-14 cells cocultured with HS-5 cells; experiment: HS-5 stromal coculture Western blot; assay type: cell-based, human; conditions: concentrations <1 μmol/L; MOLM-14 cocultured with HS-5
Description: Cells were treated as described in respective Results sections and then lysed with RIPA buffer. Western blot analyses were performed with antibodies capable of detecting both total and phosphorylated forms of each kinase purchased from commercial sources. Information on the antibodies used is provided in the Supplementary Materials section.
HS-5 cells were obtained from ATCC. The HS-5 stromal cells (5 × 10^5 cells/well) were seeded into six-well plates, and 24 hours later, MOLM-14 cells (1 × 10^6 cells/well) were seeded into the same plate and then cultured for 48 hours. Cultures were then exposed to test drugs for 2 hours, harvested, and lysates were prepared for Western blotting. For stimulation studies, MOLM-14 or KG-1a cells were seeded at 5.0 to 6.0 × 10^6 cells/well into six-well plates in 2 mL medium. Cells were stimulated with 500 μg/mL fibrinogen (Sigma-Aldrich, Catalog # F3879) for 1 hour at 37°C. Alternatively, they were treated with 10 μg/mL IgG (Invitrogen, Catalog # 31154) for 10 minutes on ice followed by IgG cross-linking with 1 μg/mL anti–human IgG antibody for 10 minutes on ice. After these incubations, the media were removed and the cells were washed with cold PBS, lysed, and analyzed by Western blotting.

[17] = Homo sapiens, MV4-11, mean ± SEM (Supplementary Table 7), read-out: GI50 (nM) Parental (MV-4-11)
[18] = Homo sapiens, MOLM-14, mean ± SEM (Supplementary Table 6), read-out: GI50 (nM) Parental MOLM-14 (converted)
[19] = Homo sapiens, MOLM-14, read-out: GI50 (nM) TUS/R line 3
[20] = Homo sapiens, MOLM-14, read-out: GI50 (nM) TUS/R line 4

Row | GI50 [4, 19] | GI50 ([5]; Homo sapiens, MV4-11) | GI50 ([6]; Homo sapiens, MV4-11) | GI50 ([7]; Homo sapiens, MV4-11) | GI50 [8, 20] | SMILES | fold hypersensitive, TUS/R versus parental MOLM-14 [3] | GI50 [1, 17] | GI50 [2, 18] | other results
1 | – | – | – | – | – | Cc1c(-c2c(-c3ccc(F)o3)sc3ncnc(O[C@H](Cc4ccccc4OCc4ccnn4CC(F)(F)F)C(=O)O)c23)ccc(OCCN2CCN(C)CC2)c1Cl [S63845] | ~20 fold | – | – | GI50 ([1]; mean ± SEM (Supplementary Table 7), read-out: GI50 (nM) Parental (MV-4-11)): 4.6 ± 0.4 nM; GI50 ([2]; mean ± SEM (Supplementary Table 6), read-out: GI50 (nM) Parental MOLM-14 (converted)): 105 ± 19.8 nM; GI50 ([4]; read-out: GI50 (nM) TUS/R line 3): 5.6 ± 0.7 nM; GI50 [5]: 1.1 ± 0.3 nM; GI50 [6]: 1.5 ± 0.1 nM; GI50 [7]: 7.3 ± 1.5 nM; GI50 ([8]; read-out: GI50 (nM) TUS/R line 4): 4.6 ± 0.3 nM
2 | 176 ± 32.9 nM | – | – | – | 459 ± 86.2 nM | COc1cc(Nc2ncc(F)c(Nc3ccc4c(n3)N(COP(=O)(O)O)C(=O)C(C)(C)O4)n2)cc(OC)c1OC [Fostamatinib, fostamatinib] | not more sensitive | – | – | –
3 | 164 ± 14.7 nM | – | – | – | 142 ± 9.1 nM | COC1=CC(c2cc3ccccc3[nH]2)=N/C1=C\c1[nH]c(C)cc1C [Obatoclax, obatoclax] | no increase in sensitivity | – | 98.2 ± 7.7 nM | –
4 | 28.9 ± 2.7 nM | – | – | – | 26.8 ± 1.8 nM | Cn1c(=O)n(-c2ccc(C(C)(C)C#N)cc2)c2c3cc(-c4cnc5ccccc5c4)ccc3ncc21 [Dactolisib, dactolisib] | not more sensitive | – | 21.3 ± 1.4 nM | –
5 | 22.8 ± 2.7 nM | 10.1 ± 3.2 nM | 7.2 ± 0.4 nM | 44.3 ± 8.3 nM | 18.2 ± 1.6 nM | Cc1c2c(nn1C)CSCc1cc(n(C)n1)CSc1cc(c3ccccc3c1)OCCCc1c(C(=O)O)n(C)c3c-2c(Cl)ccc13 [AZD5991] | ~8 fold | 32.5 ± 5.4 nM | 168 ± 33.7 nM | –
6 | – | 187 ± 38.6 nM | 104 ± 11.1 nM | 209 ± 33.9 nM | – | Cc1ccc2c(Nc3cccc(Cl)c3F)nccc2c1NC(=O)c1csc2c(N)ncnc12 [Belvarafenib, belvarafenib] | – | 750 ± 92.8 nM | – | –

Row | SMILES | GI50 [4, 19] | GI50 ([5]; Homo sapiens, MV4-11) | GI50 ([6]; Homo sapiens, MV4-11) | GI50 ([7]; Homo sapiens, MV4-11) | GI50 [8, 20] | fold hypersensitive, TUS/R versus parental MOLM-14 [3] | GI50 [1, 17] | GI50 [2, 18] | other results
7 | CCc1nc(C(N)=O)c(Nc2ccc(N3CCC(N4CCN(C)CC4)CC3)c(OC)c2)nc1NC1CCOCC1 [Gilteritinib, gilteritinib] | 118 nM | 3.3 ± 0.7 nM | 5.6 ± 1.1 nM | 51 ± 12.2 nM | 128 nM | – | 2.4 ± 0.7 nM | 8.6 nM | GI50 ([1]; Homo sapiens, MV4-11, MV-4-11, mean ± SD (Supplementary Table 4), read-out: GI50): 2 ± 0.2 nM; GI50 ([2]; Homo sapiens, MOLM-14, mean ± SD (Supplementary Table 4), read-out: GI50): 6.1 ± 2.8 nM; GI50 [9]: 1.2 ± 0.2 nM; GI50 [10]: 4.4 ± 0.6 nM; GI50 [11]: 7 ± 1.5 nM; GI50 [12]: 33 ± 6.2 nM; GI50 [13]: 2.3 ± 0.7 nM; GI50 [14]: 8.4 ± 2.9 nM; GI50 [15]: 0.5 ± 0.1 nM; inhibition of p-JAK1, p-JAK2, p-STAT3, or p-STAT5 [16]: Neither TUS nor gilteritinib inhibited
8 | CC1(C)CCC(c2ccc(Cl)cc2)=C(CN2CCN(c3ccc(C(=O)NS(=O)(=O)c4ccc(N[C@H](CCN5CCOCC5)CSc5ccccc5)c(S(=O)(=O)C(F)(F)F)c4)cc3)CC2)C1 [Navitoclax, navitoclax] | 15.3 ± 2.4 nM | – | – | – | 15 ± 2.1 nM | ~27 fold | – | 410 ± 50.2 nM | –
